Laboratory results from patent US9321762B2, “Quinazoline compounds, method for preparing the same and use thereof” (DEVELOPMENT CENTER FOR BIOTECHNOLOGY, priority 2013, dated 2016).
Like-named read-outs stand apart in the source and are kept apart here.

Key:
[1] = target: T1, B-Raf kinase (Homo sapiens, UniProt P15056); assay: B-Raf kinase assay ([33P] incorporation into MEK1(K97R)); format: biochemical; conditions: class symbols; 8 μM ATP; read-out: IC50 against B-Raf kinase
T1 construct: purchased Upstate Biotechnology
T1 sequence (P15056 whole entry): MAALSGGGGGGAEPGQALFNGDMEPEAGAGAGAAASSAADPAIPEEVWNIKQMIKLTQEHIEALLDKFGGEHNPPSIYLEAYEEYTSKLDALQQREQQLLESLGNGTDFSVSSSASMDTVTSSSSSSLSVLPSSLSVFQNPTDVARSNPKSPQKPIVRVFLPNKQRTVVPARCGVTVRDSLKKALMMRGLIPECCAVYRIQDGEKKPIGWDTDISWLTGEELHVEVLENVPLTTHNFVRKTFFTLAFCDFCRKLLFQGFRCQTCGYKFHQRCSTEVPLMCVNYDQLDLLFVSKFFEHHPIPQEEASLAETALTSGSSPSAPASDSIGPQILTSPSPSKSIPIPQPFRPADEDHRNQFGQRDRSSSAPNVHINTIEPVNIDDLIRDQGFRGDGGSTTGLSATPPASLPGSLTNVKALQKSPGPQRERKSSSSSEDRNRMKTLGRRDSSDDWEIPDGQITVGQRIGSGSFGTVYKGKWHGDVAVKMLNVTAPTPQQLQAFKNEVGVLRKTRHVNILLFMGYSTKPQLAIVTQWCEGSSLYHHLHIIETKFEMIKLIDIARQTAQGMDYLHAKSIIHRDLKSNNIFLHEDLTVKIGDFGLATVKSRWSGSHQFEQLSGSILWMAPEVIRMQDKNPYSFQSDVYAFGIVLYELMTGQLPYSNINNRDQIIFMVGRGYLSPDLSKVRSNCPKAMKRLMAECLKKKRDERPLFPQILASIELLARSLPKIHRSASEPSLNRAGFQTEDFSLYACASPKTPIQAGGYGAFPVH
How it was run: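 Recombinant B-Raf (5 ng) phosphorylating 500 ng MEK1(K97R) with 8 μM ATP plus [33P]ATP, pH 7.5 Tris buffer, 30 min at 30 °C. Radiolabel incorporation counted by filter-binding scintillation; IC50 from 3-fold serial dilutions run in duplicate.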

[2] = target: T2, B-Raf(V600E) kinase (Homo sapiens, UniProt P15056, V600E); assay: B-Raf(V600E) kinase assay ([33P] incorporation into MEK1(K97R)); format: biochemical; conditions: class symbols; 8 μM ATP; read-out: IC50 against B-Raf(V600E) kinase
T2 construct: purchased Upstate Biotechnology
T2 sequence (P15056 whole entry V600E): as the sequence (P15056 whole entry) above, with V600E counted along it
Method: (§1) Inhibition of kinase activity by a test compound disclosed herein was estimated by quantifying the amount of [^33P] incorporation of a substrate in the presence of the test compound. Standard assay conditions were 5 ng of recombinant B-Raf(V600E) kinase (Upstate Biotechnology) with 500 ng MEK1 (K97R) in assay buffer (8 μM ATP, 0.5 μCi [^33P] ATP (specific activity 3000 Ci/mmol, PerkinElmer), 50 mM Tris/HCl (pH7.5), and 1 mM EGTA, 1 mM Na3VO4, 1% 2-mercaptoethanol, 0.1% Brij 35, and 0.2 mg/ml BSA), and the test compound (diluted with 4% DMSO) or DMSO alone (as a control) in a final volume of 25 μL. Reactions were incubated at 30° C. for 30 min and stopped by adding 3% phosphoric acid, harvested onto a 96-well GF/B UniFilter (PerkinElmer) using a unifilter harvester (PerkinElmer), and counted with a TopCount microplate scintillation counter (PerkinElmer). The IC50 values of inhibitors were determined after carrying out assays at 3-fold serially diluted concentrations of each compound in duplication. The results were analyzed using linear regression software (GraphPad Prism 4; GraphPad Software Inc.).

[3] = target: T3, C-Raf kinase (Homo sapiens, UniProt P04049); assay: C-Raf kinase assay ([33P] incorporation into MEK1(K97R)); format: biochemical; conditions: class symbols; 8 μM ATP; read-out: IC50 against C-Raf kinase
T3 construct: purchased Upstate Biotechnology
T3 sequence (P04049 whole entry): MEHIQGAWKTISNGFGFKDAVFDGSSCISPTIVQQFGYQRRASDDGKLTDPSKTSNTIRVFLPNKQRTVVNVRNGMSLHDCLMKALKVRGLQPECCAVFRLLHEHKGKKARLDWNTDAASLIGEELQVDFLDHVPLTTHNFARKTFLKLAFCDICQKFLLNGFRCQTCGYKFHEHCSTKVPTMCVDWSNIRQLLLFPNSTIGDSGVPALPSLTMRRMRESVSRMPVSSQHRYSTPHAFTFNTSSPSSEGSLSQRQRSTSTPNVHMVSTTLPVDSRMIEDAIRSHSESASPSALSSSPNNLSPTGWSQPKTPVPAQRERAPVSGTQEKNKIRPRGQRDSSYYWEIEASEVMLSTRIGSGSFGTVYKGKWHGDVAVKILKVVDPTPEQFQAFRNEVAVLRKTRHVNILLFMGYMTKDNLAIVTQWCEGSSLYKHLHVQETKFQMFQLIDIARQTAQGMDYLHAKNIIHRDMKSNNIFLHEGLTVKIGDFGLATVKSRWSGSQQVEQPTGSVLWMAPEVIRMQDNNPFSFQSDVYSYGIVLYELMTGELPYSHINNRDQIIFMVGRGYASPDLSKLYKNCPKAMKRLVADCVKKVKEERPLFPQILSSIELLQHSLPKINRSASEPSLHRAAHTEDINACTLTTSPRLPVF
Method: as §1, with “were 2” for “were 5”, “recombinant C-Raf” for “recombinant B-Raf(V600E)”

[4] = target: T4, VEGFR2 kinase (Homo sapiens, UniProt P35968); assay: VEGFR2 radiometric kinase assay; format: biochemical; conditions: given as bound; 100 μM ATP; read-out: Inhibition activity, IC50 VEGFR2
T4 construct: VEGFR2 kinase domain alone, Millipore; purchased Millipore
T4 sequence (P35968 834-1162 limits assumed): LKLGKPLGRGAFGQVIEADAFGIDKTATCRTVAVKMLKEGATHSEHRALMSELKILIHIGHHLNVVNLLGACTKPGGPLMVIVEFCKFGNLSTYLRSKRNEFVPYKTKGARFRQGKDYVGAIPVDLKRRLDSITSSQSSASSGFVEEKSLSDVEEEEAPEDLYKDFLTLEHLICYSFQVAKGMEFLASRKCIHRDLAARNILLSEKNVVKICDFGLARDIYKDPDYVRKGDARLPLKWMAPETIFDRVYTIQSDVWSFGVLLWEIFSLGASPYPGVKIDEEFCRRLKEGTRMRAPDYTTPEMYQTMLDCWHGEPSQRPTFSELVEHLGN
Method: (§2) The inhibitory activity against VEGFR2 or EGFR was determined by radiometric kinase assay. The experimental condition for VEGFR2 kinase assay was 6.25 ng of recombinant VEGFR2 kinase (VEGFR2 kinase domain alone, Millipore), 5 μg of substrate Poly(Glu-Tyr) (4:1, Sigma), kinase reaction buffer (20 mM MOPS pH 7.0, 1 mM EDTA, 5% glycerol, 0.01% Brij-35, 0.1% β-mercaptoethanol, 1 mg/mL BSA, 100 μM ATP, and 0.1 μCi per well [^33P] ATP (specific activity 3000 Ci/mmol, PerkinElmer)), and the test compound (diluted with 4% DMSO) or DMSO alone (as a control) in a final volume of 25 μL. Reactions were incubated at 30° C. for 30 min and stopped by adding 3% phosphoric acid, harvested onto a 96-well GF/B UniFilter (PerkinElmer) using a unifilter harvester (PerkinElmer), and counted with a TopCount microplate scintillation counter (PerkinElmer).
(§3) Results of inhibition activity against VEGFR2 and EGFR kinases by the selected compounds, which have IC50 values on B-Raf kinase <300 nM, are summarized in Table 6.

[5] = target: T5, EGFR kinase (Homo sapiens, UniProt P00533); assay: EGFR radiometric kinase assay; format: biochemical; conditions: 100 μM ATP, read-out: Inhibition activity, IC50 EGFR
T5 construct: EGFR kinase domain alone, Millipore; purchased Millipore
T5 sequence (P00533 712-979 limits assumed): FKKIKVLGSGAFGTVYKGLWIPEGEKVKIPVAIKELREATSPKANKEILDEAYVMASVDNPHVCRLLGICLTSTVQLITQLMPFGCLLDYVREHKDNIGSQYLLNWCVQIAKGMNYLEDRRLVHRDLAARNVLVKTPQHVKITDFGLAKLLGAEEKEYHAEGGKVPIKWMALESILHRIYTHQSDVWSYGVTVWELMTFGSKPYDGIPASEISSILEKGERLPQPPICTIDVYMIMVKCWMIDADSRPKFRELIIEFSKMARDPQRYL
Method: as §2
The experimental condition for EGFR kinase assay was 25 ng of EGFR kinase (EGFR kinase domain alone, Millipore), 3 μg of the substrate poly(Glu-Tyr), (Sigma), kinase reaction buffer (10 mM MOPS pH 7.0, 0.3 mM EDTA, 0.5% glycerol, 0.001% Brij-35, 10 mM MnCl2, 0.1 mg/ml BSA, 100 μM ATP, and 0.1 μCi per well [^33P]ATP (specific activity 3000 Ci/mmol, PerkinElmer)), and the test compound (diluted with 4% DMSO) or DMSO (as a control) in a final volume of 25 μL. Reactions were incubated at 30° C. for 30 min and stopped by adding 3% phosphoric acid, harvested onto a 96-well GF/B UniFilter (PerkinElmer) using a unifilter harvester (PerkinElmer), and counted with a TopCount microplate scintillation counter (PerkinElmer).
as §3

[6] = test system: A375 melanoma cells and COLO205 colon cancer cells; assay: Cell proliferation assay (CellTiter-96); format: cell-based; conditions: Homo sapiens; A375 or COLO205, 72 hours treatment; read-out: Cytotoxicity IC50 for A375 or COLO205
Method: The anti-proliferative activities of compounds of formula (I) against B-Raf(V600E) mutant human cancer cell lines, A375 melanoma cells and COLO205 colon cancer cells, were measured using the CellTiter™-96 assay kit (Promega) following the manufacturer's instructions. In brief, the cells were maintained in DMEM containing 10% FCS and incubated at 37° C. in 5% CO2 atmosphere. Cells were plated at a density of 2,000 cells/well on a 96-well plate and incubated for 24 h. Then, these cells were treated with different concentrations of the test compounds and incubated for another 72 hours. At the end of the incubation, CellTiter™-96 Aqueous One Solution Reagent (Promega) was added and incubated for another 4.0 hours. Cell viability was determined by measuring absorbance at 490 nm using EMax® microplate reader (Molecular Devices). Data were processed and analyzed using GraphPad Prism.

Row | IC50 [1] | IC50 [2] | IC50 [3] | IC50 [4] | IC50 ([5]; given as bound) | IC50 ([5]; class symbols) | SMILES | IC50 [6]
1 | < 300 nM | < 300 nM | < 300 nM | > 3 µM | > 3000 nM | – | CCCS(=O)(=O)Nc1ccc(F)c(Nc2ncnc3cc(F)c(-c4cccnc4F)cc23)c1F [compound 7, N-(2,4-difluoro-3-(7-fluoro-6-(2-fluoropyridin-3-yl)quinazolin-4-ylamino)phenyl)propane-1-sulfonamide] | < 2000 nM
2 | < 300 nM | < 300 nM | 1000 to 10000 nM | > 3 µM | > 3000 nM | – | CCCS(=O)(=O)Nc1ccc(F)c(Nc2ncnc3ccc(-c4ccnc(OCCN(C)C)c4)cc23)c1F [compound 45, N-(3-(6-(2-(2-(dimethylamino)ethoxy)-pyridin-4-yl)quinazolin-4-ylamino)-2,4-difluorophenyl)propane-1-sulfonamide] | < 2000 nM
3 | < 300 nM | < 300 nM | < 300 nM | > 3 µM | > 3000 nM | – | O=S(=O)(CCCF)Nc1ccc(F)c(Nc2ncnc3ccc(-c4cccnc4F)cc23)c1F [compound 44, N-(2,4-difluoro-3-(6-(2-fluoropyridin-3-yl)quinazolin-4-ylamino)phenyl)-3-fluoropropane-1-sulfonamide] | < 2000 nM
4 | < 300 nM | < 300 nM | < 300 nM | > 3 µM | – | 1000 to 3000 nM | CCCS(=O)(=O)Nc1ccc(F)c(Nc2ncnc3cc(F)c(-c4ccncc4)cc23)c1F [compound 15, N-(2,4-difluoro-3-(7-fluoro-6-(pyridin-4-yl)quinazolin-4-ylamino)phenyl)propane-1-sulfonamide] | < 2000 nM
5 | < 300 nM | < 300 nM | < 300 nM | > 3 µM | – | 300 to 1000 nM | CCCS(=O)(=O)Nc1ccc(F)c(Nc2ncnc3ccc(-c4ccnc(OC)c4)cc23)c1F [compound 31, N-(2,4-difluoro-3-(6-(2-methoxypyridin-4-yl)quinazolin-4-ylamino)phenyl)propane-1-sulfonamide] | < 2000 nM
6 | < 300 nM | < 300 nM | < 300 nM | > 3 µM | – | 300 to 1000 nM | CCCS(=O)(=O)Nc1ccc(F)c(Nc2ncnc3cc(OCCOC)c(-c4cccnc4F)cc23)c1F [compound 29, N-(2,4-difluoro-3-(6-(2-fluoropyridin-3-yl)-7-(2-methoxyethoxy)quinazolin-4-ylamino)phenyl)propane-1-sulfonamide] | < 2000 nM
7 | < 300 nM | < 300 nM | < 300 nM | > 3 µM | > 3000 nM | – | CCCS(=O)(=O)Nc1ccc(F)c(Nc2ncnc3ccc(-c4cccnc4Cl)cc23)c1F [compound 57, N-(3-(6-(2-chloropyridin-3-yl)-quinazolin-4-ylamino)-2,4-difluorophenyl)propane-1-sulfonamide] | < 2000 nM
8 | < 300 nM | < 300 nM | < 300 nM | > 3 µM | > 3000 nM | – | CCCCS(=O)(=O)Nc1ccc(F)c(Nc2ncnc3ccc(-c4cccnc4F)cc23)c1F [compound 18, N-(2,4-difluoro-3-(6-(2-fluoropyridin-3-yl)quinazolin-4-ylamino)phenyl)butane-1-sulfonamide] | < 2000 nM
9 | < 300 nM | < 300 nM | < 300 nM | > 3 µM | > 3000 nM | – | CCCS(=O)(=O)Nc1ccc(F)c(Nc2ncnc3ccc(-c4cncc(F)c4)cc23)c1F [compound 46, N-(2,4-difluoro-3-(6-(5-fluoropyridin-3-yl)quinazolin-4-ylamino)phenyl)propane-1-sulfonamide] | < 2000 nM
10 | < 300 nM | < 300 nM | < 300 nM | > 3 µM | – | 300 to 1000 nM | CCCS(=O)(=O)Nc1ccc(F)c(Nc2ncnc3cc(OC)c(-c4cccnc4F)cc23)c1F [compound 28, N-(2,4-difluoro-3-(6-(2-fluoropyridin-3-yl)-7-methoxyquinazolin-4-ylamino)phenyl)propane-1-sulfonamide] | < 2000 nM
11 | < 300 nM | < 300 nM | < 300 nM | > 3 µM | – | 1000 to 3000 nM | CCCS(=O)(=O)Nc1ccc(F)c(Nc2ncnc3ccc(-c4ccc(N5CCOCC5)nc4)cc23)c1F [compound 2, N-(2,4-difluoro-3-(6-(6-morpholinopyridin-3-yl)quinazolin-4-ylamino)phenyl)propane-1-sulfonamide] | < 2000 nM
12 | < 300 nM | < 300 nM | < 300 nM | > 3 µM | – | 300 to 1000 nM | CCCS(=O)(=O)Nc1ccc(F)c(Nc2ncnc3ccc(-c4cccc(C(F)(F)F)n4)cc23)c1F [compound 62, N-(2,4-difluoro-3-(6-(6-(trifluoromethyl)pyridin-2-yl)quinazolin-4-ylamino)phenyl)propane-1-sulfonamide] | < 2000 nM
13 | < 300 nM | 300 to 1000 nM | 300 to 1000 nM | > 3 µM | > 3000 nM | – | CCCS(=O)(=O)Nc1ccc(F)c(Nc2ncnc3ccc(-c4cnc(N)nc4)cc23)c1F [compound 50, N-(3-(6-(2-aminopyrimidin-5-yl)quinazolin-4-ylamino)-2,4-difluorophenyl)propane-1-sulfonamide] | < 2000 nM
